According to patent US10329270B2, “Heteroaryl compounds as BTK inhibitors and uses thereof” (Merck Patent GmbH, priority 2013, dated 2019):

Key:
[1] = molecular target: T1, full-length human BTK (Homo sapiens, UniProt Q06187); assay: Assay A: BTK IC50 Enzyme Assay (microfluidic off-chip mobility shift kinase assay); format: biochemical; conditions: full-length human BTK, kinKDR peptide substrate, incubated 90 min at 27 C; read-out: Assay A (Time Dependent BTK Enzyme Assay IC50)
T1 construct: 2.5× stocks of full-length human BTK (08-080); purchased CarnaBio USA, Inc., Natick, Mass; 08-080
T1 sequence (Q06187 whole entry): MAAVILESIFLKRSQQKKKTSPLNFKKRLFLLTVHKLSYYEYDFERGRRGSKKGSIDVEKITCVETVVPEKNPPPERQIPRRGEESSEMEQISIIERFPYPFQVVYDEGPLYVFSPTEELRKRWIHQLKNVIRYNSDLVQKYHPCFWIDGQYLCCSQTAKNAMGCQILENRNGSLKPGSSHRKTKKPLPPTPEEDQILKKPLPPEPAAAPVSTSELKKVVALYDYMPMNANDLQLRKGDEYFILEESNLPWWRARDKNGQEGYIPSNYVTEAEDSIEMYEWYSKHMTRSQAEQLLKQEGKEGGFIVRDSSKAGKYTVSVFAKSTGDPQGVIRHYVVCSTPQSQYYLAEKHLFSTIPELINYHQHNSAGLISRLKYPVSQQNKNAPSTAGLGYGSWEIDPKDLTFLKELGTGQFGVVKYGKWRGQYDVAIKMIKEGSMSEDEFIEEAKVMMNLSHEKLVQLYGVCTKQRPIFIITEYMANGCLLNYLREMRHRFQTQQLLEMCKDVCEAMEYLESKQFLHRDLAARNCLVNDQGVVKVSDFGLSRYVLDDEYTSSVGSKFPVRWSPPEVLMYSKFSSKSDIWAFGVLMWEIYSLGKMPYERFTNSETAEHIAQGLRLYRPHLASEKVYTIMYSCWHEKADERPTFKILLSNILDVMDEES
Summary of the method: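 Off-chip microfluidic mobility shift assay with full-length human BTK; phosphorylated and unphosphorylated peptide substrate were separated by charge/mass on a LabChip 3000.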

[2] = system: PBMC; assay: Assay B: Time Dependent PMBC IC50 Assay; format: cell-based
Method: Assay B: Time Dependent PMBC IC50 Assay
Compounds described by embodiments of the present invention were assayed using a time dependent PMBC assay. The data from the same is recorded in Table 2 within the column labeled: “Time Dependent PBMC Assay IC50.” These IC50 values are reported in ranges wherein: I<1 uM and II>1 uM.

[3] = molecular target: T2, BTK in human whole blood (Homo sapiens, UniProt Q06187); assay: Assay C: Time Dependent Human Whole Blood IC50 Assay; format: cell-based; conditions: read-out: Assay C (Time Dependent Human Whole Blood BTK Enzyme Assay IC50)
T2 construct: endogenous in cells; host or cells: human whole blood
T2 sequence (Q06187 whole entry): as above
Method: Assay C: Time Dependent Human Whole Blood IC50 Assay
Compounds described by embodiments of the present invention were assayed using a human whole blood assay. The data from the same is recorded in Table 2 within the column labeled: “Time Dependent Human Whole Blood BTK Enzyme Assay IC50”.

Compound	IC50 [1]	IC50 [3]	IC50 [2]
C=CC(=O)NC1CN(c2ncc(C(N)=O)c(Oc3ccc(Oc4ccccc4)cc3)n2)C1 [Compound 174, 2-(3-Acryloylamino-azetidin-1-yl)-4-(4-phenoxy-phenoxy)-pyrimidine-5-carboxylic acid amide]	< 100 nM	100 to 1000 nM	< 100 nM
C=CC(=O)N1CC=C(c2ccc(C(N)=O)c(Oc3ccc(Oc4ccccc4)cc3)n2)CC1 [Compound 69, 1′-acryloyl-6-(4-phenoxyphenoxy)-1′,2′,3′,6′-tetrahydro-[2,4′-bipyridine]-5-carboxamide]	< 100 nM	100 to 1000 nM	< 100 nM
C=CC(=O)N1C2C=C(c3ccc(C(N)=O)c(Oc4ccc(Oc5ccccc5)cc4)n3)CC1CC2 (stereo not shown) [Compound 65, 6-(8-Acryloyl-8-aza-bicyclo[3.2.1]oct-2-en-3-yl)-2-(4-phenoxy-phenoxy)-nicotinamide]	< 100 nM	100 to 1000 nM	< 100 nM
C=CC(=O)N[C@H]1CCN(c2nc(Nc3ccc(C(=O)NC(C)(C)C)cc3)c(F)cc2C(N)=O)C1 [Compound 3, (S)-2-(3-acrylamidopyrrolidin-1-yl)-6-((4-(tert-butylcarbamoyl)phenyl)amino)-5-fluoronicotinamide]	< 100 nM	< 100 nM	< 100 nM
C=CC(=O)N[C@H]1CCN(c2ncc(C(N)=O)c(Nc3ccc(C(=O)NC(C)(C)C)cc3)n2)C1 [Compound 139, (S)-2-(3-acrylamidopyrrolidin-1-yl)-4-((4-(tert-butylcarbamoyl)phenyl)amino)pyrimidine-5-carboxamide]	< 100 nM	< 100 nM	< 100 nM
C=CC(=O)N1CCC(c2ccc(C(N)=O)c(Nc3ccc(OC4CCN(C)CC4)cc3)n2)CC1 [Compound 10, 1′-Acryloyl-6-[4-(1-methyl-piperidin-4-yloxy)-phenylamino]-1′,2′,3′,4′,5′,6′-hexahydro-[2,4′]bipyridinyl-5-carboxylic acid amide]	< 100 nM		< 100 nM
C=CC(=O)N[C@H]1CCN(c2ccc(C(N)=O)c(Nc3ccc(OC)cc3)n2)C1 [Compound 45, 6-((S)-3-Acryloylamino-pyrrolidin-1-yl)-2-(4-methoxy-phenylamino)-nicotinamide]	< 100 nM	100 to 1000 nM	
C=CC(=O)N1CCC(c2ccc(C(N)=O)c(Nc3ccc(C(=O)N4CCCCC4)cc3)n2)CC1 [Compound 22, 1′-Acryloyl-6-[4-(piperidine-1-carbonyl)-phenylamino]-1′,2′,3′,4′,5′,6′-hexahydro-[2,4′]bipyridinyl-5-carboxylic acid amide]	< 100 nM		< 100 nM
C=CC(=O)N1CCC(c2ccc(C(N)=O)c(Nc3ccc(CCN4CCCC4)cc3)n2)CC1 [Compound 18, 1′-Acryloyl-6-[4-(2-pyrrolidin-1-yl-ethyl)-phenylamino]-1′,2′,3′,4′,5′,6′-hexahydro-[2,4′]bipyridinyl-5-carboxylic acid amide]	< 100 nM		< 100 nM

Second part, led by results:

IC50 [1]	IC50 [3]	Compound	IC50 [2]
< 100 nM	< 100 nM	C=CC(=O)N1C[C@@H]2C[C@H]1CN2c1ccc(C(N)=O)c(Nc2ccc(CCN3CCCC3)cc2)n1 [Compound 9, 6-((1S,4S)-5-Acryloyl-2,5-diaza-bicyclo[2.2.1]hept-2-yl)-2-[4-(2-pyrrolidin-1-yl-ethyl)-phenylamino]-nicotinamide]	< 100 nM
< 100 nM	100 to 1000 nM	C=CC(=O)N[C@H]1CCN(c2ccc(C(N)=O)c(Nc3ccc(C(=O)N4CCN(C)CC4)cc3)n2)C1 [Compound 11, (S)-6-(3-acrylamidopyrrolidin-1-yl)-2-((4-(4-methylpiperazine-1 carbonyl)phenyl)amino)nicotinamide]	< 100 nM
< 100 nM	100 to 1000 nM	C=CC(=O)N[C@H]1CCN(c2nc(Nc3ccc(N4CCC(F)(F)CC4)cc3)c(C(N)=O)cc2F)C1 [Compound 180, 6-((S)-3-Acryloylamino-pyrrolidin-1-yl)-2-[4-(4,4-difluoro-piperidin-1-yl)-phenylamino]-5-fluoro-nicotinamide]	< 100 nM
< 100 nM	100 to 1000 nM	C=CC(=O)N[C@H]1CCN(c2ccc(C(N)=O)c(Nc3ccc(N4C[C@@H](C)O[C@@H](C)C4)nc3)n2)C1 [Compound 37, 6-((S)-3-Acryloylamino-pyrrolidin-1-yl)-2-[6-(cis-2,6-dimethyl-morpholin-4-yl)-pyridin-3-ylamino]-nicotinamide]	< 100 nM
< 100 nM	1000 to 5000 nM	C=CC(=O)N[C@H]1CCN(c2ccc(C(N)=O)c(Nc3ccc(F)nc3)n2)C1 [Compound 46, 6-((S)-3-Acryloylamino-pyrrolidin-1-yl)-2-(6-fluoro-pyridin-3-ylamino)-nicotinamide]	< 100 nM
< 100 nM		C=CC(=O)N1CCC(c2ccc(C(N)=O)c(Nc3ccc(C(=O)N4CCCC(NC(=O)CCOCCOCCOCCOCCNC(=O)CCCC[C@@H]5SCC6NC(=O)NC65)C4)cc3)n2)CC1 (stereo partly drawn) [Compound 191, 6-(1-acryloylpiperidin-4-yl)-2-((4-(3-(17-oxo-21-((4S)-2-oxohexahydro-1H-thieno[3,4-d]imidazol-4-yl)-4,7,10,13-tetraoxa-16-azahenicosanamido)piperidine-1-carbonyl)phenyl)amino)nicotinamide]	> 5000 nM
